# Earlier results in patent US20260258363A1, “THERAPY” (PLASTICELL LTD, priority 2023, published 2026).
# Tested on: bone marrow derived CD34+ cells
# Conditions: pre-treatment of cells in vitro
smiles,measurement,value
NCCCNCCS [WR1065],enhancement of formation of CFU-GEMM and BFU-E colonies,≤ 38 fold
